Measurements as given in the supplement of paper PMC10307832.

Experiments:
Experiment in all cases: relative viability (nuclei count vs DMSO), 5 days (fraction); higher = more cells survive
Olaparib + Phenformin = compound: O=C(c1cc(Cc2n[nH]c(=O)c3ccccc23)ccc1F)N1CCN(C(=O)C2CC2)CC1 [Olaparib] + N=C(N)NC(=N)NCCc1ccccc1 [Phenformin] (partner 250 µM)
Summary of the method: (§1)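 The day after seeding in 1536-well plates, lung cancer cell lines were treated by pin tool with a single drug, or with a fixed anchor-drug dose together with five library-drug doses (not always all listed) in √10 steps. After 5 days, a combined fix-and-stain solution (final 0.05% Triton X-100, 1% formaldehyde, 1 ug/ml Hoechst) was added. Nuclei counted on 4× images gave relative viability as treated counts over vehicle counts, reported as the median of duplicate plates.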

Crizotinib + Decitabine = compound: C[C@@H](Oc1cc(-c2cnn(C3CCNCC3)c2)cnc1N)c1c(Cl)ccc(F)c1Cl [Crizotinib] + Nc1ncn([C@H]2C[C@H](O)[C@@H](CO)O2)c(=O)n1 [Decitabine] (partner 2 µM)
Summary of the method: as §1

Olaparib + Foretinib = compound: O=C(c1cc(Cc2n[nH]c(=O)c3ccccc23)ccc1F)N1CCN(C(=O)C2CC2)CC1 [Olaparib] + COc1cc2c(Oc3ccc(NC(=O)C4(C(=O)Nc5ccc(F)cc5)CC4)cc3F)ccnc2cc1OCCCN1CCOCC1 [Foretinib] (partner 0.25 µM)
Summary of the method: as §1

Olaparib + Linsitinib = compound: O=C(c1cc(Cc2n[nH]c(=O)c3ccccc23)ccc1F)N1CCN(C(=O)C2CC2)CC1 [Olaparib] + C[C@]1(O)C[C@@H](c2nc(-c3ccc4ccc(-c5ccccc5)nc4c3)c3c(N)nccn32)C1 [Linsitinib] (partner 1 µM)
Summary of the method: as §1

| Cell Line | relative viability (Olaparib + Phenformin; first compound 0.08 µM) | relative viability (Olaparib + Phenformin; first compound 0.253 µM) | relative viability (Olaparib + Phenformin; first compound 2.53 µM) | relative viability (Olaparib + Phenformin; first compound 8 µM) | relative viability (Crizotinib + Decitabine; first compound 0.01 µM) | relative viability (Crizotinib + Decitabine; first compound 0.03162 µM) | relative viability (Crizotinib + Decitabine; first compound 0.1 µM) | relative viability (Crizotinib + Decitabine; first compound 0.3162 µM) | relative viability (Crizotinib + Decitabine; first compound 1 µM) | relative viability (Olaparib + Foretinib; first compound 0.08 µM) | relative viability (Olaparib + Foretinib; first compound 0.253 µM) | relative viability (Olaparib + Foretinib; first compound 2.53 µM) | relative viability (Olaparib + Foretinib; first compound 8 µM) | relative viability (Olaparib + Linsitinib; first compound 0.08 µM) | relative viability (Olaparib + Linsitinib; first compound 0.253 µM) | relative viability (Olaparib + Linsitinib; first compound 2.53 µM) | relative viability (Olaparib + Linsitinib; first compound 8 µM) |
| --- | --- | --- | --- | --- | --- | --- | --- | --- | --- | --- | --- | --- | --- | --- | --- | --- | --- |
| HOP-62 | 0.783 | 0.644 | 0.762 | 0.478 | 0.174 | 0.22 | 0.23 | 0.197 | 0.202 | 1.19 | 1.13 | 0.892 | 0.774 | 1.11 | 1.16 | 0.968 | 0.47 |
| IA-LM | – | – | – | – | – | – | – | – | – | 1.36 | 0.978 | 1.06 | 1.02 | 0.891 | 0.391 | 0.672 | 0.443 |
| LC-2-ad | 0.75 | 0.508 | 0.533 | 0.607 | 0.846 | 0.896 | 0.809 | – | 0.81 | 1.05 | 0.816 | 1.01 | 0.889 | 0.81 | 0.754 | 0.787 | 0.633 |
| LCLC-97TM1 | 0.439 | 0.414 | 0.428 | 0.429 | 0.214 | 0.235 | 0.212 | 0.248 | 0.303 | 0.912 | 0.827 | 0.958 | 0.812 | 0.166 | 0.178 | 0.162 | 0.18 |
| LCLC-103H | 0.406 | 0.309 | 0.36 | 0.306 | 0.672 | 0.759 | 0.737 | 0.754 | 0.723 | 1.13 | 0.652 | 0.732 | 0.673 | 1.13 | 1.07 | 1.04 | 0.873 |
| LK-2 | 0.661 | 0.381 | 0.77 | 0.317 | 0.293 | 0.22 | 0.289 | 0.236 | 0.284 | 1.4 | 1.21 | 1.15 | 1.12 | 0.588 | 0.691 | 0.549 | 0.485 |
| LOU-NH91 | 0.885 | 0.663 | 0.716 | 0.769 | 0.832 | 0.832 | 0.846 | 0.759 | 0.759 | 0.943 | 0.957 | 0.998 | 0.939 | 1.19 | 0.94 | 0.973 | 0.885 |
| LU99A | 0.853 | 0.777 | 0.666 | 0.556 | 0.823 | 0.803 | 0.872 | 0.784 | – | 0.826 | 0.646 | 0.608 | 0.537 | 0.587 | 0.515 | 0.414 | 0.333 |
| LXF-289 | 0.555 | 0.477 | 0.547 | 0.526 | 0.325 | 0.394 | 0.402 | 0.344 | 0.398 | 1.06 | 0.91 | 1.07 | 0.983 | 1.05 | 0.899 | 1.02 | 0.968 |
| NCI-H23 | 0.841 | 0.714 | 0.724 | 0.609 | 0.296 | 0.272 | 0.331 | – | 0.308 | 1.19 | 0.904 | 0.971 | 0.706 | 0.572 | 0.572 | 0.45 | 0.299 |
| NCI-H322M | 0.937 | 0.815 | 0.81 | 0.635 | – | 0.713 | 0.687 | 0.721 | 0.713 | 1.04 | 0.964 | 0.979 | 0.718 | 0.819 | 0.879 | 0.979 | 0.84 |
| NCI-H358 | 0.396 | 0.325 | 0.351 | 0.327 | 0.184 | 0.215 | 0.2 | 0.241 | 0.214 | 0.962 | 0.66 | 0.675 | 0.64 | 0.842 | 0.608 | 0.668 | 0.592 |
| NCI-H522 | 0.665 | 0.722 | 0.582 | 0.562 | 0.649 | 0.709 | 0.762 | 0.657 | 0.658 | – | – | – | – | – | – | – | – |
| NCI-H1299 | – | – | – | – | – | – | – | – | – | 1.13 | 1.07 | 1.11 | 1.07 | 1 | 0.945 | 0.966 | 0.943 |
| NCI-H1563 | 0.677 | 0.657 | 0.681 | 0.734 | – | – | – | – | – | 0.962 | 0.92 | 1.02 | 0.935 | 1.22 | 1.25 | 1.2 | 1.2 |
| NCI-H1623 | 0.582 | 0.619 | 0.497 | 0.474 | – | – | – | – | – | 0.954 | 0.88 | 0.814 | 0.647 | – | – | – | – |
| NCI-H1648 | – | – | – | – | – | 0.498 | 0.401 | 0.488 | 0.452 | – | – | – | – | – | – | – | – |
| NCI-H1650 | 0.446 | 0.475 | 0.405 | 0.537 | 0.3 | 0.455 | 0.466 | 0.396 | 0.468 | 1.2 | 0.996 | 1.15 | 1.35 | – | – | – | – |
| NCI-H1703 | – | – | – | – | – | – | – | – | – | 0.469 | 0.328 | 0.333 | 0.364 | 0.9 | 0.697 | 0.881 | 0.408 |
| NCI-H1792 | 0.284 | 0.224 | 0.273 | 0.194 | 0.563 | 0.51 | 0.523 | – | 0.514 | – | – | – | – | 0.7 | 0.46 | 0.421 | 0.324 |
| NCI-H2170 | 0.458 | 0.355 | 0.431 | 0.385 | 0.407 | 0.475 | 0.467 | 0.402 | 0.471 | 1.01 | 0.98 | 0.994 | 0.948 | – | – | – | – |
| NCI-H2228 | 0.333 | 0.276 | 0.287 | 0.345 | – | – | – | – | – | 0.884 | 0.767 | 0.805 | 0.765 | 0.686 | 0.629 | 0.698 | 0.434 |
| NCI-H2342 | 0.577 | 0.503 | 0.544 | 0.598 | 0.761 | 0.799 | 0.781 | 0.723 | – | 1.18 | 1.18 | 0.977 | 0.948 | – | – | – | – |
| SW 900 | 0.614 | 0.525 | 0.558 | 0.555 | 0.418 | 0.436 | 0.403 | 0.449 | 0.459 | 0.999 | 0.744 | 0.994 | 0.659 | – | – | – | – |
